Assays:
[1] = system: A2780 (cisplatin-sensitive ovarian cancer cells); experiment: Antiproliferative activity (CellTiter-Glo cytotoxicity assay) on A2780; format: cell-based, human; conditions: 96 h of incubation, stock solutions in DMSO (cisplatin in H2O/NaCl)
Procedure: (§1) With the aim of exploring the potential anticancer effects of platinum(0)-η^2-1,2-(E)ditosylethene complexes, we exposed a set of three distinct human tumor cell lines (ovarian cancer A2780 and its cisplatin-resistant clone A2780cis, and triple-negative breast cancer MDA-MB-231) to the synthesized compounds and cisplatin (positive control) for a duration of 96 h.
(§2) Two types of ovarian cancer cell lines (A2780 and A2780cis), one breast cancer cell line (MDA-MB-231) and a normal cell line (MRC-5) were cultured following the supplier’s guidelines (Sigma-Aldrich, St. Louis, MO, USA) and maintained at 37 °C in a humidified atmosphere containing 5% CO2. In 96-well plates, 1∙10^3 cancer cells and 8∙10^3 MRC-5 cells were seeded and treated after 24 h with six different concentrations of Pt(0) complexes (0.001, 0.01, 0.1, 1, 10, 100 µM). Stock solutions (10 mM) of all platinum complexes were prepared using DMSO as a solvent. After 96 h of treatment, cell viability was assessed using a CellTiter-Glo assay (Promega, Madison, WI, USA) with Tecan M1000 or SynergyH1 microplate readers (Mennedorf, Switzerland). IC50 values were determined from logistical dose–response curves using GraphPad Prism 8 software. Triplicate measurements were taken to calculate averages, and standard deviations were represented by error bars.

[2] = system: A2780cis (cisplatin-resistant ovarian cancer cells); experiment: Antiproliferative activity (CellTiter-Glo cytotoxicity assay) on A2780cis; format: cell-based, human; conditions: 96 h of incubation, stock solutions in DMSO (cisplatin in H2O/NaCl)
Procedure: as §1, §2

[3] = system: MDA-MB-231 (triple-negative breast cancer cells); experiment: Antiproliferative activity (CellTiter-Glo cytotoxicity assay) on MDA-MB-231; format: cell-based, human; conditions: 96 h of incubation; MDA-MB-231 cells; stock solutions in DMSO (cisplatin in H2O/NaCl)
Procedure: as §1, §2

[4] = system: MRC-5 (normal lung fibroblasts); experiment: Antiproliferative activity (CellTiter-Glo cytotoxicity assay) on MRC-5 normal cells; format: cell-based, human; conditions: 96 h of incubation, stock solutions in DMSO (cisplatin in H2O/NaCl)
Procedure: as §1, §2

[5] = Solubility in DMSO and DMSO/H2O solutions; format: physicochemical
From the text: Therefore, these three platinum derivatives were consequently excluded from biological analyses.

Row | Molecule | IC50 [1] | IC50 [2] | IC50 [3] | IC50 [4] | Solubility [5]
1 | [(CyIC)2Pt(η^2-(E)-1,2-ditosylethene)] [Compound 3d] | 1.18 ± 0.09 µM | 1.4 ± 0.2 µM | 1.2 ± 0.3 µM | – | –
2 | [(TosMIC)2Pt(η^2-(E)-1,2-ditosylethene)] [Compound 3b] | 5.4 ± 0.7 µM | 11 ± 6 µM | 5.52 ± 0.03 µM | 22 ± 6 µM | –
3 | [(PPh3)2Pt(η^2-(E)-1,2-ditosylethene)] [Compound 2a] | 5.5 ± 0.6 µM | > 100 µM | 2.6 ± 0.4 µM | > 100 µM | –
4 | [(PPh3)(CyIC)Pt(η^2-(E)-1,2-ditosylethene)] [Compound 4g] | – | – | – | – | low solubility
5 | [(PPh3)(TosMIC)Pt(η^2-(E)-1,2-ditosylethene)] [Compound 4c] | 55 ± 17 µM | > 100 µM | 1 ± 0.8 µM | 15 ± 3 µM | –
6 | [(P(p-F-Ph)3)2Pt(η^2-(E)-1,2-ditosylethene)] [Compound 2b] | > 100 µM | > 100 µM | 36 ± 6 µM | > 100 µM | –
7 | [(TolCH2ImCH2Tol)2Pt(η^2-(E)-1,2-ditosylethene)] [Compound 6a] | 1.6 ± 0.1 µM | 10 ± 3 µM | 36 ± 11 µM | > 100 µM | –
8 | [(P(p-F-Ph)3)(DIC)Pt(η^2-(E)-1,2-ditosylethene)] [Compound 4b] | 85 ± 23 µM | > 100 µM | 30 ± 13 µM | > 100 µM | –
9 | [(P(p-F-Ph)3)(CyIC)Pt(η^2-(E)-1,2-ditosylethene)] [Compound 4h] | 41 ± 10 µM | > 100 µM | 37 ± 13 µM | > 100 µM | –
10 | [(CH3ImCH2Ph)2Pt(η^2-(E)-1,2-ditosylethene)] [Compound 6b] | 1.9 ± 0.3 µM | 12.91 ± 0.06 µM | 5.4 ± 0.9 µM | 61 ± 13 µM | –
11 | [(PPh3)(TIC)Pt(η^2-(E)-1,2-ditosylethene)] [Compound 4e] | – | – | – | – | low solubility
12 | [(P(2-furyl)3)2Pt(η^2-(E)-1,2-ditosylethene)] [Compound 2c] | 17.2 ± 0.8 µM | > 100 µM | > 100 µM | > 100 µM | –
13 | [(TIC)2Pt(η^2-(E)-1,2-ditosylethene)] [Compound 3c] | 2.6 ± 0.3 µM | 3.1 ± 0.9 µM | 3.4 ± 0.4 µM | 3.5 ± 0.1 µM | –
14 | [(PPh3)(DIC)Pt(η^2-(E)-1,2-ditosylethene)] [Compound 4a] | 35 ± 3 µM | > 100 µM | 1.8 ± 0.6 µM | 59 ± 8 µM | –
15 | [(P(p-F-Ph)3)(TosMIC)Pt(η^2-(E)-1,2-ditosylethene)] [Compound 4d] | > 100 µM | > 100 µM | 0.4 ± 0.1 µM | 14 ± 1 µM | –
16 | [(DIC)2Pt(η^2-(E)-1,2-ditosylethene)] [Compound 3a] | – | – | – | – | low solubility
17 | N.N.[Cl][Pt][Cl] [Cisplatin, reference compound] | 0.19 ± 0.08 µM | 5.4 ± 0.1 µM | 6.4 ± 0.5 µM | 2.9 ± 0.1 µM | –
18 | [(P(p-F-Ph)3)(TIC)Pt(η^2-(E)-1,2-ditosylethene)] [Compound 4f] | > 100 µM | > 100 µM | 21 ± 2 µM | > 100 µM | –
